Experimental data from patent US9714243B2, “4-pyridinonetriazine derivatives as HIV integrase inhibitors” (Merck Sharp & Dohme Corp., priority 2012, dated 2017).
Like-named read-outs stand apart in the source and are kept apart here.

Tested on: HIV-1 (NL4-3 strain)
Test: Assay for inhibition of HIV replication (ViKinG; infected MT4-GFP cells)
Assay type: cell-based
Procedure: Assay for inhibition of HIV replication
MT4-GFP cells (250,000 cells/ml) were bulk-infected with HIV-1 (NL4-3 strain) at low multiplicity of infection (MOI) in RPMI+10% FBS for 24 hours. […] Test compounds were serial-diluted in DMSO on ECHO. The infected MT4-GFP cells were added to a 384-well poly-D-lysine coated black plate with clear bottom in which the diluted test compounds were placed. The cells were seeded at 8,000 cells per well and the final DMSO concentration was 0.4%. The infected cells (Green GFP cells) were quantified at both 24 and 48 hours post incubation using Acumen eX3. Viral reproductive ratio (R0) was determined using the number of infected cells at 48 hours divided by the number of infected cells at 24 hours. Percent viral growth inhibition was calculated by [1−(R−Rtripledrug)/(RDMSO−Rtripledrug)]*100. Compound potency IP or IC50 was determined by a 4-parameter dose response curve analysis.

[1] = Human immunodeficiency virus 1, NL43, MT4-GFP cells infected with HIV-1 NL4-3, 0% normal human serum (NHS), read-out: ViKinG IP (nM) with 0% NHS
[2] = Human immunodeficiency virus 1, NL43, MT4-GFP cells infected with HIV-1 NL4-3, 10% normal human serum (NHS), read-out: ViKinG IP (nM) with 10% NHS
[3] = Human immunodeficiency virus 1, NL43, MT4-GFP cells infected with HIV-1 NL4-3, 100% normal human serum (NHS), read-out: ViKinG IP (nM) with 100% NHS
[4] = MT4-GFP cells infected with HIV-1 NL4-3, 0% normal human serum (NHS), read-out: ViKinG IP (nM) with 0% NHS
[5] = MT4-GFP cells infected with HIV-1 NL4-3, 100% normal human serum (NHS), read-out: ViKinG IP (nM) with 100% NHS
[6] = MT4-GFP cells infected with HIV-1 NL4-3, 10% normal human serum (NHS), read-out: ViKinG IP (nM) with 10% NHS

SMILES	IC50 [1] [nM]	IC50 [2] [nM]	IC50 [3] [nM]	also measured
COC(=O)[C@@]12C[C@@H]1CCC21N(C)C(=O)c2c(O)c(=O)c(-c3nnc(Cc4ccc(F)cc4F)s3)cn2N1C (mixture of isomers) [Compound 199]	5.42	13.9	202	–
CN1C(=O)c2c(O)c(=O)c(-c3nnc(Cc4ccc(F)cc4F)s3)cn2N(C)C12CC[C@@H]1C[C@@]12CO (mixture of isomers) [Compound 200]	–	–	–	IC50 [4]: 2.04 nM; IC50 [5]: 66.7 nM
CN1n2cc(-c3nnc(Cc4ccc(F)cc4F)s3)c(=O)c(O)c2C(=O)NC12CC[C@H]1C[C@H]12 (mixture of isomers) [Compound 201]	3.82	–	575	–
COCCN1C(=O)c2c(O)c(=O)c(-c3nnc(Cc4ccc(F)cc4F)s3)cn2N(C)C12CC[C@H]1C[C@H]12 (mixture of isomers) [Compound 202]	8.36	1180	–	–
COC(=O)[C@@]12C[C@@H]1CCC21NC(=O)c2c(O)c(=O)c(-c3nnc(Cc4ccc(F)cc4F)s3)cn2N1C (mixture of isomers) [Compound 204]	2.81	9.04	146	–
CCN1C(=O)c2c(O)c(=O)c(-c3nnc(Cc4ccc(F)cc4F)s3)cn2N(C)C1C(C)(C)C (racemic) [Compound 16]	–	57	1030	–
CCN1C(=O)c2c(O)c(=O)c(-c3nnc(Cc4ccc(F)cc4F)s3)cn2N(C)C1C1(C)CC1 (racemic) [Compound 17]	–	138	4070	–
CCN1C(=O)c2c(O)c(=O)c(-c3nnc(Cc4ccc(F)cc4F)s3)cn2N(C)C1c1cccc(OC)n1 (racemic) [Compound 18]	–	38.7	1190	–
CCN1C(=O)c2c(O)c(=O)c(-c3nnc(Cc4ccc(F)cc4F)s3)cn2N(C)C1CC(C)=O (racemic) [Compound 40]	2.53	374	–	–
CCN1C(=O)c2c(O)c(=O)c(-c3nnc(Cc4ccc(F)cc4F)s3)cn2N(C)C12CCCc1sccc12 (racemic) [Compound 42]	92.5	321	–	–
CCN1C(=O)c2c(O)c(=O)c(-c3nnc(Cc4ccc(F)cc4F)s3)cn2N(C)C12CCCC(=O)C2 (racemic) [Compound 43]	40.7	275	–	–
CCN1C(=O)c2c(O)c(=O)c(-c3nnc(Cc4ccc(F)cc4F)s3)cn2N(C)C12CCCCC(=O)C2 (racemic) [Compound 44]	4.36	–	240	–
CCN1C(=O)c2c(O)c(=O)c(-c3nnc(Cc4ccc(F)cc4F)s3)cn2N(C)C1c1ccc(F)c(OC)c1 (racemic) [Compound 48]	19.6	–	416	–
CC1=CCC2(CC1)N(C)C(=O)c1c(O)c(=O)c(-c3nnc(Cc4ccc(F)cc4F)s3)cn1N2C (racemic) [Compound 71]	16.1	49.5	–	–
CN1C(=O)c2c(O)c(=O)c(-c3nnc(Cc4ccc(F)cc4F)s3)cn2N(C)C12CCCc1occc12 (racemic) [Compound 78]	10.7	93	–	–
CN1C2CCCN2C(=O)c2c(O)c(=O)c(-c3nnc(Cc4ccc(F)cc4F)s3)cn21 (racemic) [Compound 155]	–	48.7	304	–
CN1C2CCCCCN2C(=O)c2c(O)c(=O)c(-c3nnc(Cc4ccc(F)cc4F)s3)cn21 (racemic) [Compound 159]	–	121	–	–
CN1C2COCCN2C(=O)c2c(O)c(=O)c(-c3nnc(Cc4ccc(F)cc4F)s3)cn21 (racemic) [Compound 160]	–	22.6	298	–
CN1n2cc(-c3nnc(Cc4ccc(F)cc4F)s3)c(=O)c(O)c2C(=O)N2CCCC21CO (racemic) [Compound 163]	8.22	–	499	–
CCN1C(=O)c2c(O)c(=O)c(-c3nnc(Cc4ccc(F)cc4)s3)cn2N(C)C1C1CC1 (racemic) [Compound 217]	–	66	1020	–
CCN1C(=O)c2c(O)c(=O)c(-c3nnc(Cc4ccc(F)cc4)s3)cn2N(C)C1C1CCOCC1 (racemic) [Compound 219]	–	26.9	–	–
CCN1C(=O)c2c(O)c(=O)c(-c3nnc(Cc4ccc(F)cc4)s3)cn2N(C)C1(C)COC (racemic) [Compound 223]	–	–	369	–
CCN1C(=O)c2c(O)c(=O)c(-c3nnc(Cc4ccc(F)cc4)s3)cn2N(C)C1(C)C [Compound 5]	–	31	936	–
CCN1C(=O)c2c(O)c(=O)c(-c3nnc(Cc4ccc(F)cc4)s3)cn2N(C)C1c1ccn[nH]1 (stereo not drawn) [Compound 6]	–	30.8	357	–
CCO[C@H]1CC[C@@]2(CC1)N(CC)C(=O)c1c(O)c(=O)c(-c3nnc(Cc4ccc(F)cc4F)s3)cn1N2C [Compound 9]	5.06	–	141	–

SMILES	IC50 [1] [nM]	IC50 [2] [nM]	IC50 [3] [nM]	also measured
CCN1C(=O)c2c(O)c(=O)c(-c3nnc(Cc4ccc(F)cc4)s3)cn2N(C)C12CC(O)C2 (stereo not drawn) [Compound 11]	–	231	4200	–
CN1C(=O)c2c(O)c(=O)c(-c3nnc(Cc4ccc(F)cc4)s3)cn2N(C)C12CCC(O)CC2 (stereo not drawn) [Compound 13]	–	–	–	IC50 [4]: 23.8 nM; IC50 [6]: 86.9 nM; IC50 [5]: 862 nM
CN1C(=O)c2c(O)c(=O)c(-c3nnc(Cc4ccc(F)cc4)s3)cn2N(C)C12CCC(O)CC2 (stereo not drawn) [Compound 14]	–	–	–	IC50 [4]: 5.37 nM; IC50 [6]: 18.8 nM; IC50 [5]: 198 nM
CCN1C(=O)c2c(O)c(=O)c(-c3nnc(Cc4ccc(F)cc4F)s3)cn2N(C)C1(C)C [Compound 15]	3.49	57.9	971	–
CCN1C(=O)c2c(O)c(=O)c(-c3nnc(Cc4ccc(F)cc4F)s3)cn2N(C)C12CCC(C(=O)OC)C2 (stereo not drawn) [Compound 19]	–	22.8	314	–
CCN1C(=O)c2c(O)c(=O)c(-c3nnc(Cc4ccc(F)cc4F)s3)cn2N(C)C12CCC(CC(=O)OC)C2 (stereo not drawn) [Compound 20]	–	28.7	218	–
CCN1C(=O)c2c(O)c(=O)c(-c3nnc(Cc4ccc(F)cc4F)s3)cn2N(C)C12CCC(CC(=O)OC)CC2 (stereo not drawn) [Compound 21]	–	31.8	–	–
CCN1C(=O)c2c(O)c(=O)c(-c3nnc(Cc4ccc(F)cc4F)s3)cn2N(C)C12CCC1(CCC(=O)N1)CC2 (stereo not drawn) [Compound 22]	–	292	–	–
CCN1C(=O)c2c(O)c(=O)c(-c3nnc(Cc4ccc(F)cc4F)s3)cn2N(C)C12CCC1(CCC(=O)N1)CC2 (stereo not drawn) [Compound 23]	–	–	–	IC50 [6]: 466 nM
CCN1C(=O)c2c(O)c(=O)c(-c3nnc(Cc4ccc(F)cc4F)s3)cn2N(C)C12CCC(NS(C)(=O)=O)CC2 (stereo not drawn) [Compound 24]	–	185	1040	–
CCOP(=O)(OCC)C1CCCC2(C1)N(CC)C(=O)c1c(O)c(=O)c(-c3nnc(Cc4ccc(F)cc4F)s3)cn1N2C (stereo not drawn) [Compound 25]	–	40.5	–	–
CCN1C(=O)c2c(O)c(=O)c(-c3nnc(Cc4ccc(F)cc4F)s3)cn2N(C)C12CCC(OC)CC2 (stereo not drawn) [Compound 26]	–	9.22	115	IC50 [4]: 2.83 nM
CCN1C(=O)c2c(O)c(=O)c(-c3nnc(Cc4ccc(F)cc4F)s3)cn2N(C)C12CCC(OC)CC2 (stereo not drawn) [Compound 27]	–	–	–	IC50 [4]: 9.24 nM; IC50 [6]: 11.5 nM; IC50 [5]: 191 nM
CCN1C(=O)c2c(O)c(=O)c(-c3nnc(Cc4ccc(F)cc4F)s3)cn2N(C)C12CC[C@H](C(=O)OC)[C@H](C)C2 (stereo partly drawn) [Compound 30]	–	–	–	IC50 [6]: 13.1 nM
CCN1C(=O)c2c(O)c(=O)c(-c3nnc(Cc4ccc(F)cc4F)s3)cn2N(C)C12CC[C@H](C(=O)OC)[C@H](C)C2 (stereo partly drawn) [Compound 31]	–	–	–	IC50 [6]: 32.2 nM
CCN1C(=O)c2c(O)c(=O)c(-c3nnc(Cc4ccc(F)cc4F)s3)cn2N(C)C12CC[C@@H](C(=O)OC)[C@H](C)C2 (stereo partly drawn) [Compound 32]	–	21.1	–	–
CCN1C(=O)c2c(O)c(=O)c(-c3nnc(Cc4ccc(F)cc4F)s3)cn2N(C)C12CC[C@@H](C(=O)OC)[C@H](C)C2 (stereo partly drawn) [Compound 33]	–	–	–	IC50 [6]: 29 nM
CCN1C(=O)c2c(O)c(=O)c(-c3nnc(Cc4ccc(F)cc4F)s3)cn2N(C)C12CCC(c1n[nH]c(=O)o1)CC2 (stereo not drawn) [Compound 34]	–	23.6	180	–
CCOC(=O)C1CC2(CC1(C)C)N(CC)C(=O)c1c(O)c(=O)c(-c3nnc(Cc4ccc(F)cc4F)s3)cn1N2C (stereo not drawn) [Compound 35]	–	100	–	–
CCN1C(=O)c2c(O)c(=O)c(-c3nnc(Cc4ccc(F)cc4F)s3)cn2N(C)C12C[C@H]1CC(CC(=O)OC)C[C@H]1C2 (stereo partly drawn) [Compound 36]	–	52.6	–	–
CCOP(=O)(OCC)C1CCC2(C1)N(CC)C(=O)c1c(O)c(=O)c(-c3nnc(Cc4ccc(F)cc4F)s3)cn1N2C (stereo not drawn) [Compound 37]	–	–	186	IC50 [6]: 18.2 nM
CCOP(=O)(OCC)C1CCC2(C1)N(CC)C(=O)c1c(O)c(=O)c(-c3nnc(Cc4ccc(F)cc4F)s3)cn1N2C (stereo not drawn) [Compound 38]	–	–	–	IC50 [6]: 95.4 nM
CCN1C(=O)c2c(O)c(=O)c(-c3nnc(Cc4ccc(F)cc4F)s3)cn2N(C)C12CC[C@@H]1C[C@@H]12 (stereo partly drawn) [Compound 39]	0.213	77.7	–	–
CCN1C(=O)c2c(O)c(=O)c(-c3nnc(Cc4ccc(F)cc4F)s3)cn2N(C)C1CC(C)O (stereo not drawn) [Compound 41]	3.15	73.2	–	–
CCN1C(=O)c2c(O)c(=O)c(-c3nnc(Cc4ccc(F)cc4F)s3)cn2N(C)C12CCCCC(O)C2 (stereo not drawn) [Compound 45]	4.07	–	122	–
